Source: ChEMBL document CHEMBL4616652, “Bioactive Polyhydroxanthones from Penicillium purpurogenum” (J Nat Prod, 2020)
Values after ≈ are worked out from the molar mass of the structure shown. Where a name gives a salt, the structure may show the parent alone.

What was measured:
Staphylococcus aureus [1] = experiment: Antimicrobial activity against Staphylococcus aureus incubated for 7 hrs by alamar Blue assay; type: functional
HepG2 = experiment: Cytotoxicity against human HepG2 cells after 72 hrs by MTT assay; type: functional, cell-based; settings: HepG2, 72 h
HeLa = experiment: Cytotoxicity against human HeLa cells after 72 hrs by MTT assay; type: functional, cell-based
Shigella dysenteriae = experiment: Antimicrobial activity against Shigella dysenteriae incubated for 7 hrs by alamar Blue assay; type: functional
Vero = experiment: Cytotoxicity against African green monkey Vero cells incubated for 72 hrs by MTT assay; type: cell-based; settings: Chlorocebus sabaeus
Staphylococcus aureus [2] = experiment: Antimicrobial activity against methicillin-resistant Staphylococcus aureus incubated for 7 hrs by alamar Blue assay; type: functional
A549 = experiment: Cytotoxicity against human A549 cells after 72 hrs by MTT assay; type: functional, cell-based; settings: A549, 72 h

SMILES	MIC (Staphylococcus aureus [1]) [µg/mL]	IC50 (HepG2) [µM]	IC50 (HeLa) [µM]	MIC (Shigella dysenteriae) [µg/mL]	IC50 (Vero) [µM]	MIC (Staphylococcus aureus [2]) [µg/mL]	IC50 (A549) [µM]
C[C@@]12O[C@@H]1C(O)=C1C(=O)c3c(ccc(-c4ccc5c(c4O)C(=O)C4=C(O)[C@H]6O[C@@]6(C)[C@H](OC(=O)CCC(=O)O)[C@]4(C)O5)c3O)O[C@@]1(C)[C@H]2OC(=O)CCC(=O)O	12.5 (≈ 16.1 µM)	> 50	> 50	100 (≈ 128 µM)	> 50	100 (≈ 128 µM)	> 50
COC(=O)CCC(=O)O[C@H]1[C@]2(C)O[C@@H]2C(O)=C2C(=O)c3c(ccc(-c4ccc5c(c4O)C(=O)C4=C(O)[C@H]6O[C@@]6(C)[C@H](OC(=O)CCC(=O)OC)[C@]4(C)O5)c3O)O[C@]21C	0.4 (≈ 0.496 µM)	0.5	0.3	6.3 (≈ 7.81 µM)	> 50	0.4 (≈ 0.496 µM)	0.6
C[C@@H]1C[C@@H](O)[C@@]2(O)C(=O)c3c(O)cccc3O[C@]2(C)[C@H]1O	> 100	> 50	> 50	> 100	> 50		> 50
C[C@@]12O[C@@H]1[C@H](O)[C@]1(O)C(=O)c3c(O)cccc3O[C@@]1(C)[C@H]2O	> 100	> 50	> 50	> 100	> 50		> 50
C[C@@]12O[C@]3(C(=O)c4c(O)cccc4O[C@@]3(C)[C@H]1O)[C@@H](O)[C@H]2O	> 100	> 50	> 50	> 100	> 50		> 50
CC1=C[C@H](O)[C@]2(O)C(=O)c3c(O)cccc3O[C@@]2(C)[C@H]1OC(=O)CCC(=O)O	> 100	> 50	> 50	> 100	> 50		> 50
COC(=O)CCC(=O)O[C@H]1[C@]2(C)O[C@@H]2C(O)=C2C(=O)c3c(ccc(-c4ccc5c(c4O)C(=O)C4=C(O)[C@H]6O[C@@]6(C)[C@H](OC(=O)CCC(=O)O)[C@]4(C)O5)c3O)O[C@]21C	3.1 (≈ 3.91 µM)	4.8	7.6	6.3 (≈ 7.95 µM)	> 50	12.5 (≈ 15.8 µM)	32
CC1=C[C@H](O)[C@]2(O)C(=O)c3c(O)cccc3O[C@@]2(C)[C@H]1O	> 100	> 50	> 50	> 100	> 50		> 50
COc1cccc2c1C(=O)c1c(O)c3c(c(O)c1C2=O)C[C@@](O)(C(=O)CO)C[C@@H]3O[C@H]1C[C@H](N)[C@H](O)[C@H](C)O1 [DOXORUBICIN HYDROCHLORIDE]			0.5				0.7
NC[C@H]1O[C@H](O[C@H]2[C@H](O)[C@@H](O[C@H]3O[C@H](CO)[C@@H](O)[C@H](N)[C@H]3O)[C@H](N)C[C@@H]2N)[C@H](O)[C@@H](O)[C@@H]1O [KANAMYCIN]	0.8 (≈ 1.65 µM)			0.2 (≈ 0.413 µM)		> 100	
CN[C@H](CC(C)C)C(=O)N[C@H]1C(=O)N[C@@H](CC(N)=O)C(=O)N[C@H]2C(=O)N[C@H]3C(=O)N[C@H](C(=O)N[C@H](C(=O)O)c4cc(O)cc(O)c4-c4cc3ccc4O)[C@H](O)c3ccc(c(Cl)c3)Oc3cc2cc(c3O[C@@H]2O[C@H](CO)[C@@H](O)[C@H](O)[C@H]2O[C@H]2C[C@](C)(N)[C@H](O)[C@H](C)O2)Oc2ccc(cc2Cl)[C@H]1O [VANCOMYCIN]						0.8 (≈ 0.552 µM)	
